According to ChEMBL document CHEMBL5038635, “Discovery of Salidroside-Derivated Glycoside Analogues as Novel Angiogenesis Agents to Treat Diabetic Hind Limb Ischemia” (J Med Chem, 2022):
Calls of active or inactive are those of the source. The rule behind the calls is not given here.

Assays:
[1] = Protein binding in human plasma by balanced dialysis method; type: ADME, cell-free; conditions: read-out: PPB (converted)
[2] = Efflux ratio of Apparent permeability across basolateral to apical side over apical to basolateral side in human Caco-2 cells
C2C12 [3] = experiment: Reversal of hyperglycemia-induced VEGF-A protein level reduction in mouse C2C12 cells measured at 30 uM by Western blot analysis; type: functional, cell-based
C2C12 [4] = experiment: Angiogenic activity in mouse C2C12 cells assessed as accumulation VEGF-A protein expression at 300 uM by Western blot analysis; type: functional, cell-based
C2C12 [5] = experiment: Angiogenic activity in mouse C2C12 cells assessed as accumulation ANG1 protein expression at 300 uM by Western blot analysis; type: functional, cell-based
[6] = Dissociation constant, pKa of compound by UV-visible spectrometric method; type: physicochemical
[7] = Permeability coefficient across apical to basolateral side in human Caco-2 cells by HPLC-UV analysis
C2C12 [8] = experiment: Angiogenic activity in mouse C2C12 cells assessed as reversal of hyperglycemia-induced reduction in total cell number at 30 uM measured after 24 to 36 hrs by EdU-incorporation assay; type: functional, cell-based; conditions: time 24-36 hrs
C2C12 [9] = experiment: Angiogenic activity in mouse C2C12 cells assessed as reversal of hyperglycemia-induced reduction in total cell number at 100 uM measured after 24 to 36 hrs by EdU-incorporation assay; type: functional, cell-based; conditions: time 24-36 hrs
C2C12 [10] = experiment: Angiogenic activity in mouse C2C12 cells assessed as reversal of hyperglycemia-induced reduction in total cell number at 300 uM measured after 24 to 36 hrs by EdU-incorporation assay; type: functional, cell-based; conditions: time 24-36 hrs
C2C12 [11] = experiment: Induction of proliferation of hyperglycemia-induced mouse C2C12 cell death assessed as increase in number of EdU-positive cells at 7.5 to 300 uM pretreated with compound under hyperglycemia condition for 12 hr followed by hypoxia for 24 hrs; type: functional, cell-based; conditions: dose 7.5-300 µM, time 36.0 hrs
C2C12 [12] = experiment: Induction of proliferation of hyperglycemia-induced mouse C2C12 cell apoptosis assessed as decrease in Annexin V/PI-positive cells at 30 uM pretreated with compound under hyperglycemia condition for 12 hr followed by hypoxia for 24 hrs; type: functional, cell-based; conditions: time 36.0 hrs
C2C12 [13] = experiment: Angiogenic activity in mouse C2C12 cells assessed as reversal of hyperglycemia-induced reduction in total cell number measured after 12 to 36 hrs; type: functional, cell-based
C2C12 [14] = experiment: Apoptotic rate in hyperglycemia-treated mouse C2C12 cells assessed as early apoptotic cells at 15 uM by AnnexinV-FITC/PI staining based flow cytometric analysis (reference value: 7.10 %); type: functional
C2C12 [15] = experiment: Upregulation of VEGF-A protein expression in mouse C2C12 cells at 30 uM by Western blot analysis; type: functional, cell-based
C2C12 [16] = experiment: Upregulation of ANG1 protein expression in mouse C2C12 cells at 30 uM by Western blot analysis; type: functional, cell-based
C2C12 [17] = experiment: Upregulation of HO-1 protein expression in mouse C2C12 cells at 30 uM by Western blot analysis; type: functional, cell-based
C2C12 [18] = experiment: Upregulation of […] protein expression in mouse C2C12 cells at 30 uM by Western blot analysis; type: functional, cell-based
C2C12 [19] = experiment: Upregulation of IGF protein expression in mouse C2C12 cells at 30 uM by Western blot analysis; type: functional, cell-based
C2C12 [20] = experiment: Upregulation of EPO protein expression in mouse C2C12 cells at 30 uM by Western blot analysis; type: functional, cell-based
C2C12 [21] = experiment: Upregulation of ANGPTL4 protein expression in mouse C2C12 cells at 30 uM by Western blot analysis; type: functional, cell-based
C2C12 [22] = experiment: Upregulation of CXCL17 protein expression in mouse C2C12 cells at 30 uM by Western blot analysis; type: functional, cell-based
C2C12 [23] = experiment: Reversal of hyperglycemia-induced PDGF-BB protein level reduction in mouse C2C12 cells measured at 30 uM by ELISA; type: functional, cell-based
C2C12 [24] = experiment: Induction of cell migration in mouse C2C12 cells at 30 uM under hyperglycemic condition incubated for 24 hrs by crystal violet dye based transwell chamber assay; type: functional
C2C12 [25] = experiment: Increase in PDGF-BB protein expression level in HIF-1 alpha silenced mouse C2C12 cells at 30 uM by Western blot analysis; type: functional, cell-based
C2C12 [26] = experiment: Apoptotic rate in mouse C2C12 cells with silenced HIF-1alpha assessed as necrotic cells at 30 uM by AnnexinV-FITC/PI staining based FACS analysis (reference value: 0.31 %); type: functional
C2C12 [27] = experiment: Apoptotic rate in mouse C2C12 cells with silenced HIF-1alpha assessed as early apoptotic cells at 30 uM by AnnexinV-FITC/PI staining based FACS analysis (reference value: 4.02 %); type: functional
C2C12 [28] = experiment: Apoptotic rate in mouse C2C12 cells with silenced HIF-1alpha assessed as viable cells at 30 uM by AnnexinV-FITC/PI staining based FACS analysis (reference value: 86.05 %); type: functional; conditions: read-out: Activity
HUVEC = experiment: Induction proliferation of human HUVEC cells assessed as increase in number of EdU-positive cells using conditioned medium of mouse C2C12 cells treated at 30 uM under hyperglycemic condition for 12 hrs followed by hypoxia for 24 hrs by EdU-incorporation assay; type: functional; conditions: time 36 hrs
MOVAS-1 = experiment: Angiogenesis activity in mouse MOVAS-1 cells assessed as suppression of cell migration using conditioned medium of mouse C2C12 cells treated at 30 uM under hyperglycemic condition for 12 hrs followed by hypoxia for 24 hrs by crystal violet dye based transwell assay; type: functional; conditions: time 36.0 hrs
[29] = Stability in rat plasma assessed as compound remaining at 6.25 to 25 mg/L after 12 hrs by HPLC analysis; type: ADME, cell-free; conditions: at 6.25 to 25 µg/mL, dose 6.25-25 mg/L, read-out: Stability
[30] = Metabolic stability in rat leg muscle homogenates assessed as compound remaining after 30 min by HPLC analysis; type: ADME, tissue-based, muscle of leg; conditions: read-out: Stability
Mus musculus [31] = experiment: Antidiabetic activity in diabetic HLI C57BL/6 mouse model assessed as increase in blood perfusion recovery at 30 mg/kg administered intramuscularly; type: functional, organism-based
Mus musculus [32] = experiment: Angiogenic activity in diabetic HLI C57BL/6 mouse model assessed as increase in number of alpha-SMA-positive cells at 30 mg/kg, im administered for 21 days followed by surgery by immunofluorescence analysis; type: functional, organism-based; conditions: time 21.0 day
Mus musculus [33] = experiment: Angiogenic activity in diabetic HLI C57BL/6 mouse model assessed as increase in number of PECAM-1/alpha-SMA double-positive cells at 30 mg/kg, im administered for 21 days followed by surgery by immunofluorescence analysis; type: functional, organism-based; conditions: time 21.0 day
[34] = Toxicity in diabetic HLI C57BL/6 mouse model assessed as lung pathology at 30 mg/kg, IM administered by HE staining based assay; type: organism-based; conditions: in vivo
C2C12 [35] = experiment: Induction proliferation of mouse C2C12 cells assessed as increase in number of EdU-positive cells at 30 uM under normoglycemic condition by EdU-incorporation assay; type: functional, cell-based
C2C12 [36] = experiment: Angiogenesis activity in mouse C2C12 cells assessed as decrease in apoptotic rate at 30 uM under hyperglycemia condition presence of MeOE2 inhibitor by Annexin V/PI staining based Flowcytometry method; type: functional, cell-based
C2C12 [37] = experiment: Effect on PHD1 mRNA expression in mouse C2C12 cells at 30 uM by qRT-PCR analysis; type: functional, cell-based
C2C12 [38] = experiment: Effect on PHD2 mRNA expression in mouse C2C12 cells at 30 uM by qRT-PCR analysis; type: functional, cell-based

Which results are given for `COc1ccc(Cc2cccc(O[C@@H]3O[C@H](CO)[C@@H](O)[C@H](O)[C@H]3O)c2)cc1`?
fraction unbound [1]: 0.669; efflux ratio [2]: 1.07; Activity (C2C12 [3]): Active; inhibition (C2C12 [4]): Active; inhibition (C2C12 [5]): Active; pKa [6]: > 14; Papp A→B [7]: 1.04 ×10⁻⁶ cm/s; Activity (C2C12 [8]): inactive; Activity (C2C12 [9]): inactive; Activity (C2C12 [10]): inactive; Activity (C2C12 [11]): Active; Activity (C2C12 [12]): Active; EC50 (C2C12 [13]): 12.7 µM; Activity (C2C12 [14]): 3.14%; Activity (C2C12 [15]): Active; Activity (C2C12 [16]): Active; Activity (C2C12 [17]): Active; Activity (C2C12 [18]): Active; Activity (C2C12 [19]): Active; Activity (C2C12 [20]): Active; Activity (C2C12 [21]): Active; Activity (C2C12 [22]): Active; Activity (C2C12 [23]): Active; Activity (C2C12 [24]): Active; Activity (C2C12 [25]): inactive; Activity (C2C12 [26]): 0.16%; Activity (C2C12 [27]): 3.18%; viability at 30 µM (C2C12 [28]): 82%; fold change (FC) (HUVEC): 2; Activity (MOVAS-1): Active; remaining at 12 h [29]: 98.5%; remaining at 0.5 h [30]: 99%; Activity (Mus musculus [31]): Active; Activity (Mus musculus [32]): Active; Activity (Mus musculus [33]): Active; Activity [34]: Non-Toxic; Activity (C2C12 [35]): Active; Activity (C2C12 [36]): inactive; Activity (C2C12 [37]): inactive; Activity (C2C12 [38]): inactive
